Legend:
TTR [1] = assay: TTR editing in primary human hepatocytes electroporated with Spy Cas9 protein loaded with dgRNAs (Table 7); assay type: cell-based; conditions: dgRNA electroporated with Spy Cas9 protein (RNP)
How it was run: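 Editing efficiency is the fraction of NGS reads carrying insertions, deletions or substitutions at the TTR target, measured on MiSeq amplicons from DNA harvested 24, 48 or 72 h post-delivery. Cas9–dgRNA ribonucleoprotein was nucleofected (P3 buffer, EX-147) into primary human or cyno hepatocytes.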

TTR [2] = assay: TTR editing in primary human hepatocytes transfected with Spy Cas9 mRNA and dgRNAs (Table 9); assay type: cell-based; conditions: dgRNA co-transfected with Spy Cas9 mRNA (SEQ ID NO:2)
How it was run: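 PHH sequentially lipofected with Spy Cas9 mRNA (100 ng), then crRNA plus tracrRNA (25 nM each) dual-guide lipoplex. Cells harvested 24, 48 or 72 h post-transfection; TTR target amplicons sequenced on Illumina MiSeq, editing given as percent reads with indels or substitutions over total reads.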

TTR [3] = assay: TTR editing in HEK293_Cas9 cells transfected with dgRNAs (Table 4); assay type: cell-based, human; conditions: HEK293_Cas9 cells (constitutively express Spy Cas9) transfected with dgRNAs
How it was run: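 Percent editing, taken from amplicon NGS as the fraction of all reads carrying insertions, deletions or substitutions, was measured 24, 48 or 72 h after delivery. Delivery used RNAiMAX lipoplexes of 25 nM each crRNA and trRNA into HEK293 cells stably expressing Spy Cas9.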

TTR [4] = assay: TTR editing in HUH7 cells transfected with Spy Cas9 mRNA and dgRNAs (Table 5); assay type: cell-based, human; conditions: HUH7 cells co-transfected with Spy Cas9 mRNA (SEQ ID NO:2) and dgRNAs
How it was run: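 Percent editing is the share of NGS reads at the TTR target carrying insertions, deletions or substitutions, from amplicon sequencing of genomic DNA harvested at 24, 48 or 72 h. HUH7 cells first received Cas9 mRNA (100 ng) by lipofection, then dual-guide RNA (crRNA and tracer, 25 nM each).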

Sequence | Avg % Deletion (TTR [1]) | Avg % Edit (TTR [1]) | Avg % Insert (TTR [1]) | Avg % Deletion (TTR [2]) | Avg % Edit (TTR [2]) | Avg % Insert (TTR [2]) | Avg % Deletion (TTR [3]) | Avg % Edit (TTR [3]) | Avg % Insert (TTR [3]) | Avg % Deletion (TTR [4]) | Avg % Edit (TTR [4]) | Avg % Insert (TTR [4])
UACUCACCUCUGCAUGCUCA (tested as dual guide RNA, chemistry not given here) [CR003372] | 1.77% | 12.17% | 10.47% | 0.63% | 1.77% | 1.13% | 11.99% | 15.24% | 3.25% | 17.25% | 21.52% | 4.89%
AAAUAGACACCAAAUCUUAC (tested as dual guide RNA, chemistry not given here) [CR003366] | 3.10% | 34.70% | 31.63% | 4.07% | 24.53% | 20.47% | 37.26% | 47.36% | 10.10% | 50.32% | 69.98% | 20.77%
AGUCCCUCAUUCCUUGGGAU (tested as dual guide RNA, chemistry not given here) [CR003392] | 0.17% | 4.13% | 4.00% | 0.07% | 2.43% | 2.37% | 20.82% | 21.67% | 0.85% | 26.98% | 28.37% | 1.93%
CAUUGAUGGCAGGACUGCCU (tested as dual guide RNA, chemistry not given here) [CR003347] | 0.43% | 82.30% | 81.97% | 0.17% | 41.47% | 41.33% | 20.50% | 21.45% | 0.95% | 30.79% | 32.16% | 1.64%
GCAUGGGCUCACAACUGAGG (tested as dual guide RNA, chemistry not given here) [CR003362] | 0.20% | 7.03% | 6.87% | 0.47% | 6.60% | 6.17% | 8.41% | 9.90% | 1.48% | 23.76% | 26.43% | 3.43%
GAAAGGCUGCUGAUGACACC (tested as dual guide RNA, chemistry not given here) [CR003352] | 4.30% | 29.83% | 25.63% | 5.07% | 16.80% | 11.73% | 22.99% | 27.90% | 4.91% | 32.79% | 39.68% | 7.62%
